In patent publication US20240158446A1, “CYCLIC COMPOUND HAVING SELECTIVE INHIBITORY ACTION ON KRAS OVER HRAS AND NRAS” (CHUGAI SEIYAKU KABUSHIKI KAISHA, priority 2021, published 2024):
Where a SMILES comes first, the peptide text is derived from it. Bridges are numbered along the chain shown (N, C = ends). [ ]: non-standard residue; d: D form. The star is where a group is joined. hPhe(3-Cl-4-CF3) = N[C@@H](CCc1ccc(C(F)(F)F)c(Cl)c1)C(=O)O; NPrPhe(4-CF3) = CCCN[C@@H](Cc1ccc(C(F)(F)F)cc1)C(=O)O; NMeGly(cPent) = CN[C@H](C(=O)O)C1CCCC1; Pro(4,4-F2) = O=C(O)[C@@H]1CC(F)(F)CN1; Hyp = O=C(O)[C@@H]1C[C@@H](O)CN1; NMeL = CN[C@@H](CC(C)C)C(=O)O; Morpholide = C1CN(*)CCO1; Ac5c = NC1(C(=O)O)CCCC1; Aze = O=C(O)[C@@H]1CCN1; Ac4c = NC1(C(=O)O)CCC1; NEtG = CCNCC(=O)O; Sar = CNCC(=O)O

Key:
[1] = target: GDP-bound KRAS wild-type protein (Homo sapiens, UniProt P01116); test: Binding to KRAS by surface plasmon resonance (SPR), Single Cycle Kinetics; conditions: SPR Single Cycle Kinetics, GDP-bound KRAS wild-type protein, 1:1 binding model; read-out: KRAS KD
Chain of GDP-bound KRAS wild-type protein (P01116 whole entry): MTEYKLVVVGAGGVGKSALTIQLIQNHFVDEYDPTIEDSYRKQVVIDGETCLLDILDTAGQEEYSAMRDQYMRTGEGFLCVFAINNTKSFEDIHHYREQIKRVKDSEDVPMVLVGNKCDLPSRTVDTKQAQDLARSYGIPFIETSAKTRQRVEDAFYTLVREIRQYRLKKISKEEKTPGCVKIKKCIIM

[2] = target: GDP-bound HRAS wild-type protein (Homo sapiens, UniProt P01112); test: Binding to HRAS by surface plasmon resonance (SPR), Single Cycle Kinetics; conditions: SPR, GDP-bound HRAS wild-type protein vs GDP-bound KRAS wild-type protein
Chain of GDP-bound HRAS wild-type protein (P01112 whole entry): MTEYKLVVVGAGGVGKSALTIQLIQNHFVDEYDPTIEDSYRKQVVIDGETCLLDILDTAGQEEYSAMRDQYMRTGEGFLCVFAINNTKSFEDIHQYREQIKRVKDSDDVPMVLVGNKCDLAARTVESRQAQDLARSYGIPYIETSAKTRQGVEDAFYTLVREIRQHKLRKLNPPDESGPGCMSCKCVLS

[3] = target: GDP-bound NRAS wild-type protein (Homo sapiens, UniProt P01111); test: Binding to NRAS by surface plasmon resonance (SPR), Single Cycle Kinetics; conditions: SPR, GDP-bound NRAS wild-type protein vs GDP-bound KRAS wild-type protein
Chain of GDP-bound NRAS wild-type protein (P01111 whole entry): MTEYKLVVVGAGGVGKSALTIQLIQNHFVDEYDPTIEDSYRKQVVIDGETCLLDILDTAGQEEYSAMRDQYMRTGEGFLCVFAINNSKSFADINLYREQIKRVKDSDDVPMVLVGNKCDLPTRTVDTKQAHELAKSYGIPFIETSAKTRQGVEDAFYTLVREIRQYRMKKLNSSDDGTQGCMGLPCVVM

| Structure (SMILES) | Kd [1] | HRAS/KRAS (ratio of KD value for HRAS to KD value for KRAS) [2] | NRAS/KRAS (ratio of KD value for NRAS to KD value for KRAS) [3] |
| --- | --- | --- | --- |
| CCCN1C(=O)CN(C)C(=O)CNC(=O)[C@H]([C@@H](C)CC)NC(=O)[C@H](CC(C)C)N(C)C(=O)C[C@@H](C(=O)N2CCOCC2)NC(=O)[C@H](C2CCCC2)N(C)C(=O)C2(CCCC2)NC(=O)[C@@H]2CC(F)(F)CN2C(=O)[C@H](CCc2ccc(C(F)(F)F)c(Cl)c2)NC(=O)CN(C)C(=O)[C@@H]1Cc1ccc(C(F)(F)F)cc1 [PP0327] ([NMeL]IG[Sar][NPrPhe(4-CF3)][Sar][hPhe(3-Cl-4-CF3)][Pro(4,4-F2)][Ac5c][NMeGly(cPent)]D-Morpholide; lactam N-11) | 1.9 nM | B (a compound having 3 or more and less than 10 is denoted as B) | B (a compound having 3 or more and less than 10 is denoted as B) |
| CCCN1C(=O)CN(C)C(=O)CN(CC)C(=O)[C@H]([C@@H](C)CC)NC(=O)[C@H](CC(C)C)N(C)C(=O)C[C@@H](C(=O)N2CCOCC2)NC(=O)[C@H](C2CCCC2)N(C)C(=O)C2(CCCC2)NC(=O)[C@@H]2CCCN2C(=O)[C@H](CCc2ccc(C(F)(F)F)c(Cl)c2)NC(=O)CN(C)C(=O)[C@@H]1Cc1ccc(C(F)(F)F)cc1 [PP0331] ([NMeL]I[NEtG][Sar][NPrPhe(4-CF3)][Sar][hPhe(3-Cl-4-CF3)]P[Ac5c][NMeGly(cPent)]D-Morpholide; lactam N-11) | 2.8 nM | B (a compound having 3 or more and less than 10 is denoted as B) | B (a compound having 3 or more and less than 10 is denoted as B) |
| CCCN1C(=O)CN(C)C(=O)CN(CC)C(=O)[C@H]([C@@H](C)CC)NC(=O)[C@H](CC(C)C)N(C)C(=O)C[C@@H](C(=O)N2CCOCC2)NC(=O)[C@H](C2CCCC2)N(C)C(=O)C2(CCC2)NC(=O)[C@@H]2CCCN2C(=O)[C@H](CCc2ccc(C(F)(F)F)c(Cl)c2)NC(=O)CN(C)C(=O)[C@@H]1Cc1ccc(C(F)(F)F)cc1 [PP0332] ([NMeL]I[NEtG][Sar][NPrPhe(4-CF3)][Sar][hPhe(3-Cl-4-CF3)]P[Ac4c][NMeGly(cPent)]D-Morpholide; lactam N-11) | 3.2 nM | B (a compound having 3 or more and less than 10 is denoted as B) | B (a compound having 3 or more and less than 10 is denoted as B) |
| CCCN1C(=O)CN(C)C(=O)CN(CC)C(=O)[C@H]([C@@H](C)CC)NC(=O)[C@H](CC(C)C)N(C)C(=O)C[C@@H](C(=O)N2CCOCC2)NC(=O)[C@H](C2CCCC2)N(C)C(=O)C2(CCCC2)NC(=O)[C@@H]2CC(F)(F)CN2C(=O)[C@H](CCc2ccc(C(F)(F)F)c(Cl)c2)NC(=O)CN(C)C(=O)[C@@H]1Cc1ccc(C(F)(F)F)cc1 [PP0333] ([NMeL]I[NEtG][Sar][NPrPhe(4-CF3)][Sar][hPhe(3-Cl-4-CF3)][Pro(4,4-F2)][Ac5c][NMeGly(cPent)]D-Morpholide; lactam N-11) | 2.4 nM | C (A compound having a KD ratio of 0.1 or more and less than 3 is denoted as C) | B (a compound having 3 or more and less than 10 is denoted as B) |
| CCCN1C(=O)CN(C)C(=O)CN(CC)C(=O)[C@H]([C@@H](C)CC)NC(=O)[C@H](CC(C)C)N(C)C(=O)C[C@@H](C(=O)N2CCOCC2)NC(=O)[C@H](C2CCCC2)N(C)C(=O)C2(CCC2)NC(=O)[C@@H]2CC(F)(F)CN2C(=O)[C@H](CCc2ccc(C(F)(F)F)c(Cl)c2)NC(=O)CN(C)C(=O)[C@@H]1Cc1ccc(C(F)(F)F)cc1 [PP0334] ([NMeL]I[NEtG][Sar][NPrPhe(4-CF3)][Sar][hPhe(3-Cl-4-CF3)][Pro(4,4-F2)][Ac4c][NMeGly(cPent)]D-Morpholide; lactam N-11) | 4.7 nM | C (A compound having a KD ratio of 0.1 or more and less than 3 is denoted as C) | B (a compound having 3 or more and less than 10 is denoted as B) |
| CCCN1C(=O)CN(C)C(=O)[C@@H]2CCN2C(=O)[C@H]([C@@H](C)CC)NC(=O)[C@H](CC(C)C)N(C)C(=O)C[C@@H](C(=O)N2CCOCC2)NC(=O)[C@H](C2CCCC2)N(C)C(=O)C2(CCCC2)NC(=O)[C@@H]2CCCN2C(=O)[C@H](CCc2ccc(C(F)(F)F)c(Cl)c2)NC(=O)CN(C)C(=O)[C@@H]1Cc1ccc(C(F)(F)F)cc1 [PP0337] ([NMeL]I[Aze][Sar][NPrPhe(4-CF3)][Sar][hPhe(3-Cl-4-CF3)]P[Ac5c][NMeGly(cPent)]D-Morpholide; lactam N-11) | 2.5 nM | B (a compound having 3 or more and less than 10 is denoted as B) | B (a compound having 3 or more and less than 10 is denoted as B) |
| CCCN1C(=O)CN(C)C(=O)[C@@H]2CCN2C(=O)[C@H]([C@@H](C)CC)NC(=O)[C@H](CC(C)C)N(C)C(=O)C[C@@H](C(=O)N2CCOCC2)NC(=O)[C@H](C2CCCC2)N(C)C(=O)C2(CCCC2)NC(=O)[C@@H]2CC(F)(F)CN2C(=O)[C@H](CCc2ccc(C(F)(F)F)c(Cl)c2)NC(=O)CN(C)C(=O)[C@@H]1Cc1ccc(C(F)(F)F)cc1 [PP0339] ([NMeL]I[Aze][Sar][NPrPhe(4-CF3)][Sar][hPhe(3-Cl-4-CF3)][Pro(4,4-F2)][Ac5c][NMeGly(cPent)]D-Morpholide; lactam N-11) | 5 nM | B (a compound having 3 or more and less than 10 is denoted as B) | B (a compound having 3 or more and less than 10 is denoted as B) |

These reach a lower Kd [1]. Values come first.

| Kd [1] | Structure (SMILES) | HRAS/KRAS (ratio of KD value for HRAS to KD value for KRAS) [2] | NRAS/KRAS (ratio of KD value for NRAS to KD value for KRAS) [3] |
| --- | --- | --- | --- |
| 1.6 nM | CCCN1C(=O)CN(C)C(=O)CNC(=O)[C@H]([C@@H](C)CC)NC(=O)[C@H](CC(C)C)N(C)C(=O)C[C@@H](C(=O)N2CCOCC2)NC(=O)[C@H](C2CCCC2)N(C)C(=O)C2(CCC2)NC(=O)[C@@H]2CC(F)(F)CN2C(=O)[C@H](CCc2ccc(C(F)(F)F)c(Cl)c2)NC(=O)CN(C)C(=O)[C@@H]1Cc1ccc(C(F)(F)F)cc1 [PP0328] ([NMeL]IG[Sar][NPrPhe(4-CF3)][Sar][hPhe(3-Cl-4-CF3)][Pro(4,4-F2)][Ac4c][NMeGly(cPent)]D-Morpholide; lactam N-11) | B (a compound having 3 or more and less than 10 is denoted as B) | B (a compound having 3 or more and less than 10 is denoted as B) |
| 1.6 nM | CCCN1C(=O)CN(C)C(=O)CN(CC)C(=O)[C@H]([C@@H](C)CC)NC(=O)[C@H](CC(C)C)N(C)C(=O)C[C@@H](C(=O)N2CCOCC2)NC(=O)[C@H](C2CCCC2)N(C)C(=O)C2(CCC2)NC(=O)[C@@H]2C[C@@H](OCC)CN2C(=O)[C@H](CCc2ccc(C(F)(F)F)c(Cl)c2)NC(=O)CN(C)C(=O)[C@@H]1Cc1ccc(C(F)(F)F)cc1 [PP0336] ([NMeL]I[NEtG][Sar][NPrPhe(4-CF3)][Sar][hPhe(3-Cl-4-CF3)][Hyp](Et)[Ac4c][NMeGly(cPent)]D-Morpholide; lactam N-11) | B (a compound having 3 or more and less than 10 is denoted as B) | B (a compound having 3 or more and less than 10 is denoted as B) |
| 1.3 nM | CCCN1C(=O)CN(C)C(=O)CN(CC)C(=O)[C@H]([C@@H](C)CC)NC(=O)[C@H](CC(C)C)N(C)C(=O)C[C@@H](C(=O)N2CCOCC2)NC(=O)[C@H](C2CCCC2)N(C)C(=O)C2(CCCC2)NC(=O)[C@@H]2C[C@@H](OCC)CN2C(=O)[C@H](CCc2ccc(C(F)(F)F)c(Cl)c2)NC(=O)CN(C)C(=O)[C@@H]1Cc1ccc(C(F)(F)F)cc1 [PP0335] ([NMeL]I[NEtG][Sar][NPrPhe(4-CF3)][Sar][hPhe(3-Cl-4-CF3)][Hyp](Et)[Ac5c][NMeGly(cPent)]D-Morpholide; lactam N-11) | C (A compound having a KD ratio of 0.1 or more and less than 3 is denoted as C) | B (a compound having 3 or more and less than 10 is denoted as B) |
| 0.95 nM | CCCN1C(=O)CN(C)C(=O)CNC(=O)[C@H]([C@@H](C)CC)NC(=O)[C@H](CC(C)C)N(C)C(=O)C[C@@H](C(=O)N2CCOCC2)NC(=O)[C@H](C2CCCC2)N(C)C(=O)C2(CCC2)NC(=O)[C@@H]2C[C@@H](OCC)CN2C(=O)[C@H](CCc2ccc(C(F)(F)F)c(Cl)c2)NC(=O)CN(C)C(=O)[C@@H]1Cc1ccc(C(F)(F)F)cc1 [PP0330] ([NMeL]IG[Sar][NPrPhe(4-CF3)][Sar][hPhe(3-Cl-4-CF3)][Hyp](Et)[Ac4c][NMeGly(cPent)]D-Morpholide; lactam N-11) | C (A compound having a KD ratio of 0.1 or more and less than 3 is denoted as C) | B (a compound having 3 or more and less than 10 is denoted as B) |
| 0.74 nM | CCCN1C(=O)CN(C)C(=O)CNC(=O)[C@H]([C@@H](C)CC)NC(=O)[C@H](CC(C)C)N(C)C(=O)C[C@@H](C(=O)N2CCOCC2)NC(=O)[C@H](C2CCCC2)N(C)C(=O)C2(CCCC2)NC(=O)[C@@H]2C[C@@H](OCC)CN2C(=O)[C@H](CCc2ccc(C(F)(F)F)c(Cl)c2)NC(=O)CN(C)C(=O)[C@@H]1Cc1ccc(C(F)(F)F)cc1 [PP0329] ([NMeL]IG[Sar][NPrPhe(4-CF3)][Sar][hPhe(3-Cl-4-CF3)][Hyp](Et)[Ac5c][NMeGly(cPent)]D-Morpholide; lactam N-11) | C (A compound having a KD ratio of 0.1 or more and less than 3 is denoted as C) | B (a compound having 3 or more and less than 10 is denoted as B) |
